# Legend:
# [1] = test system: pigs with endotoxin-induced acute lung damage
# Experimental: The Animal Research Ethics Committee of Uppsala University approved the study. Twentysix pigs of Swedish country breed, weighing 24-29 Kg, were used in the study. Before the transport from the farm, the pigs were sedated with a neuroleptic, azaperonum ([…], Janssen, Belgium), 40 mg intramuscularly (im). Anaesthesia was induced with atropine im (0.04 mg/Kg), tiletamin/zolazepam (ZOLETIL, Virbac Laboratories) (6 mg/Kg) and xylzry (ROMPUN, Bayer AG, Germany) (2.2 mg/Kg). After induction, a cannula was inserted in an ear vein and an opioid ([…], Antigen Pharmaceuticals Ltd, Roscrea, Ireland) (5 ug/Kg) was injected. Muscle relaxation was provided by pancuronium (PAVULON, Organon Technika AB, Göteborg, Sweden) ([…]). Anaesthesia was maintained with a continuous infusion of a hypnotic (chlomethiazole, HEMINEVRIN, Astra, Södertälje, Sweden) (400 mg/hour), pancuronium (2 mg/hour) and fentanyl (150 ug/hour) Repeated doses of fentanyl 0.2-0.5 mg i.v. were given as necessary. Depth of anaesthesia was considered to be adequate when skin incisions did riot cause any changes in heart rate or blood pressure. Pre-warmed (38° C.) isotonic saline 500 ml/hour was given for hydration. The animals were placed in the supine position (dorsal recumbency) for the remainder of the study.
# A tracheotomy was performed after induction of anaesthesia and a cuffed tracheal tube (inner diameter 6 mm) was inserted. A volume-controlled ventilator (Siemens 900c) provided mechanical ventilation. Transducers built into the ventilator recorded airway pressure and minute ventilation. Respiratory frequency was maintained at 20 breaths per minute with tidal volume adjusted to maintain an end-tidal CO2 (PetCO2) between 36 and 41 mm Hg (4.8-5.4 kPa). The inspiratory time was 25%; an end-inspiratory pause 5% of the respiratory cycle was applied, as well as an end-expiratory pressure (PEEP) of 5-cm H2O. Inspired fraction of oxygen (FIO2) was 0.5.
# A triple lumen balloon-tipped catheter (Swan Ganz no. 7F) was introduced via the right external jugular vein to the pulmonary artery for blood sampling and pressure recordings. […] The right carotid artery was cannulated for blood sampling and recording of arterial blood pressure.
# The arterial, central venous and pulmonary artery catheters were connected to appropriate pressure transducers (Sorenson Transpac.Transducers, Abbott Critical Care Systems, Ill, USA) and pressures were recorded on a Marquette 7010 monitor (Marquette Electronics Inc., WI USA). Mean arterial pressure (MAP), mean pulmonary artery pressure (MPAP), heart rate (HR), central venous pressure (CVP), pulmonary capillary wedge pressure (PCWP) and cardiac output (Qt) were recorded. Airway pressures were registered from the ventilator. Vascular pressures were averaged over the whole respiratory cycle and the mid-thorax was used as the zero reference level.
# Qt was measured.by means of thermodilution: 10 ml of ice cold isotonic saline were injected as a bolus and the Qt was computed (cardiac output computer Marquette 7010, Marquette Electronics Inc., WI, USA). At least three injections were given for each measurement and the mean was calculated. The injections were evenly distributed over the respiratory cycle. The expired minute volume was recorded at each measurement. Mixed venous and arterial blood samples were collected for blood gas analysis (ABL 3, Radiometer, Copenhagen, Denmark), oxygen saturation and hemoglobin concentration (OSM 3, Radiometer, Copenhagen, Denmark). Five-ml arterial blood were collected at the same time, the plasma was separated for biochemical analysis (see below).
# Acute lung damage was induced by intravenous infusion of endotoxin 25 ug/kg/hour for 3 hours, and then maintained at 10 ug/kg/hour during the remaining experimental period.
# Thirty minutes after surgery, baseline measurements of hemodynamics were made, blood samples were taken and blood was collected for subsequent biochemical analysis.
# COX-1 = COX-1 expression in lung tissue by Western blotting; type: in vivo, pig; conditions: 3 and 5 hour INO trial, no-block group
# Experimental: (§1) The lung tissue blocks were rinsed by PBS at 4° C. The total protein of lung tissue was extracted by homogenization (Ultra-Turrax, Jenke and Kunkel, IKA Labortechnik, Staufen, Germany) in 5 volumes of ice-cold 0.05M Tris buffer (pH 7.4) containing 0.5 mM phenylmethyl-sulfonylfluoride to inhibit proteolysis. The supernatant was collected and stored at −80° C. until the analysis. The concentration of whole protein in the supernatant was determined by the method of Lowry. Then the protein was fractionated by sodium dodecyl sulfate-polyacrylamide gel electrophoresis, and electrophoretically transferred to a nitrocellulose membrane. The blot was blocked with 5% BSA in TBS overnight at 4° C. and then incubated with anti-COX-1 (1:2500, Cayman Chemical, MI, USA, Ca 160108), COX-2 (1:1500, Cayman Chemical, MI, USA, Ca 160108) in TBS containing 1% BSA over night at 4° C. […] The blot was washed 5 times in TBS, and the antigen-antibody complex was detected on photographic film, using enhanced chemiluminescence reagent (Amersham, Arlington Heights, Ill., USA). All the experiments were carried out three times, and the bands from each experiment were analyzed using the program of National Institutes of Health (NIH) Image 1.6 C for statistical analysis.
# COX-2 = COX-2 expression in lung tissue by Western blotting; type: in vivo, pig; conditions: no-block group
# Experimental: as §1
# TXB2 = test: Plasma TXB2 concentration by enzyme immunoassay; type: in vivo, pig
# Experimental: The injections were evenly distributed over the respiratory cycle. The expired minute volume was recorded at each measurement.
# Blood was collected in pre-chilled tubes containing EDTA (10 mM, final concentration), centrifuged (10 min 40C). Measurements of TXB2 concentration were performed using a commercially available enzyme immunoassay (Thromboxane B2 EIA kit Cayman Chemical, MI, USA, Ca 519031). Serum was collected from each test tube and stored at −70° C. until TXB2 measurements were performed. To ensure that all samples were free of organic solvents, the serum was purified before its addition to the assay well. Purification of TXB2 was performed as the Cayman Chemical Introduction, by first adding 10,000 cpm of tritium-labeled TXB2 (3H-TXB2) to each sample, and then 2 ml ethanol, followed by votex 4° C. for 5 minutes, and centrifugation at 1500 g for 10 minutes to remove precipitated proteins. The supernatant was collected and mixed with ultra-pure water. The sample was passed through a C-18 reverse phase cartridge. Ten percent of the eluate was removed for scintillation counting.
# Enzyme immunoassays were performed in duplicate by mixing 50 μl purified sample with 50 μl tracer and 50 μl antiserum on micro-plates. After 18 hours incubation, 200 μl Ellmans-Reagents was added to start the enzymatic reaction, and the absorption of individual vials was measured 30 minutes later at 405 nm using a photometry micro-plate reader (Thermo Max, Molecular Devices). Concentrations of TXB2 in the samples were estimated from standard curves obtained by nonlinear regression to absorption of eight known TXB2 concentrations ranging from 7.5 to 1000 pg/ml. The intra-assay and inter-assay coefficients of variation were <10%. For further details, see the TXB2 Enzyme immunoassay Kit 519031 Cayman Chemical manual.
# [2] = inhalation of 30 ppm NO after 3 hours of endotoxin infusion (first trial)
# [3] = second trial, after 4 hours of endotoxin infusion, 30 ppm NO
# [4] = second trial, five minutes after discontinuation of NO inhalation
Compound,"effect of pretreatment on MPAP ([1]; Diclofenac in saline 300 mg/Kg iv bolus 30 minutes before NO inhalation, endotoxin infusion)",time to MPAP increase after discontinuation of NO inhalation ([1]; first trial) [min],PaO2 rebound on discontinuation of NO inhalation ([1]; first trial (3 hours of endotoxin infusion)),"decrease in MPAP [1, 2] [%]","increase in PaO2 [1, 2] [%]","increase in respiratory resistance during the endotoxin infusion ([1]; pig, in vivo)","MPAP response to NO inhalation in second trial compared with first trial one hour earlier [1, 3]","PaO2 response to NO inhalation in second trial compared with first trial one hour earlier [1, 3]","MPAP increase above the pre-NO level after discontinuation [1, 4] [%]","PaO2 after discontinuation relative to pre-NO level [1, 4]",effect of inhalation or discontinuation on COX-1 expression (COX-1),effect of thirty minutes of INO on COX-2 expression (COX-2; 3 and 5 hour inhalation test),COX-2 expression after the INO periods (COX-2),plasma TXB2 level during NO inhalation (TXB2; first INO trial),"plasma TXB2 after INO withdrawal (TXB2; first INO trial, five minutes after withdrawal, p<0.05 in no-block group)",plasma TXB2 after second INO withdrawal (TXB2; second INO trial)
O=C(O)Cc1ccccc1Nc1c(Cl)cccc1Cl [Diclofenac],lowered MPAP,,,,,,,,,,,,,,,
"[N]=O [NO, nitric oxide]",,≤ 5,did not show a clear rebound phenomenon,28,54,did not prevent or attenuate the rise,weaker,"weaker, and no longer significant",26,fallen to below the pre-NO level,did not affect,had no effect,remained increased,did not change,increased,further increase
